Patent publication US20030023104A1, “Therapeutic compound - fatty acid conjugates” (COMMONWEALTH SCIENTIFIC AND INDUSTRIAL RESEARCH ORGANISATION, priority 1995, published 2003)
Values joined by “and” are separate entries in the source; they are usually repeats but may differ in a detail not shown here. Equal entries are not always repeated. Where two headings read alike, the source gives them in different places.

Experiments:
[1] = test system: C8166 (human T-lymphoblastoid cells); assay: Cell growth (cytotoxicity) in C8166 cells; format: cell-based; conditions: for IC50: 5 days, read-out: IC50 (concentration of drug which reduces cell growth by 50%)
Experimental: (§1) The anti-HIV activities of AZT-Suc-GTP1 and AZT-Suc-GTP2 were also tested. Infected cells were incubated for 5 days with compound. Compounds were dissolved in DMSO and 5-fold dilutions were used. The following parameters were measured: syncytia formation, virus antigen gp120 production, cell survival. Cytotoxicity is also measured in uninfected cells.
(§2) C8166 (human T-lymphoblastoid cells) infected with HIV-I MN
(§3) IC50=concentration of drug which reduces cell growth by 50%.

[2] = test system: HIV-I U4550; assay: Anti HIV activity, Ag gp120 production in infected JM cells; format: cell-based; conditions: for Ratio of AZT: Conjugate EC50: JM cell line; for EC50: JM cells infected with HIV-I U4550, 5 days, read-out: EC50 (concentration which reduces Ag gp120 by 50% in infected cell cultures)
Experimental: as §1
(§4) JM (semi mature human T-cell from lymphoblastoid leukemia) infected with HIV-I U4550
(§5) EC50=concentration which reduces Ag gp120by 50% in infected cell cultures.

[3] = test system: peripheral blood mononuclear cells (PBMC); assay: Cytotoxicity of AZT and conjugates, MTS viability assay, PBMC; format: cell-based, human; conditions: 40 h, drug in ethanol
Experimental: (§6) The cytotoxicity of AZT and AZT-fatty acid conjugates (AZT-Suc-GTP1P2 and P3) was tested in vitro with JURKAT (acute T cell human leukemia) and peripheral blood mononuclear cells (PBMC).
Human peripheral blood mononuclear cells (PBMC) were isolated from three healthy donors by centrifugation on Ficoll-Paque (Pharmacia). Cells were seeded into a 96-well plates at a density of 2×10^5 cells/200 ul complete RPMI ± drug and cultured for 40 h.
(§7) Each concentration was tested in at least 3 wells.

[4] = test system: JM (semi mature human T-cell from lymphoblastoid leukemia); assay: Cell growth (cytotoxicity) in JM cells; format: cell-based; conditions: for IC50: 5 days, read-out: IC50 (concentration of drug which reduces cell growth by 50%)
Experimental: as §1, §4, §3

[5] = test system: JURKAT (acute T cell human leukemia); assay: Cytotoxicity of AZT and conjugates, MTS viability assay, JURKAT; format: cell-based
Experimental: as §6, §7

[6] = test system: HIV-I MN; assay: Anti HIV activity, Ag gp120 production in infected C8166 cells; format: cell-based; conditions: for Ratio of AZT: Conjugate EC50: C8166 cell line; for EC50: C8166 cells infected with HIV-I MN, 5 days, read-out: EC50 (concentration which reduces Ag gp120 by 50% in infected cell cultures)
Experimental: as §1, §2, §5

[7] = test system: B16 mouse melanoma cells; assay: Cytotoxicity of chlorambucil and conjugates, MTS assay, B16; format: cell-based; conditions: for IC50: B16, ethanol delivery, 48 h
Experimental: Media was removed and complete EMEM ± drug was added to wells. Cells were further cultured for 48 h.
as §7

[8] = test system: JURKAT cells (acute T cell human leukemia)
Experimental: The cytotoxicity of chlorambucil and chlorambucil fatty acid conjugates (CGTP1. P2 and P3) were tested in vitro with JURKAT cells (acute T cell human leukemia). Cells were incubated with drug and viability was determined by a colourmetric proliferation test. Cytotoxicity towards other cells lines was also tested (PC3 human prostate cancer cells, B16 mouse melanoma cells and human peripheral blood mononuclear cells).
JURKAT cells were seeded into 96-well plates at a density of 1.6×10^4 cells/200 μl complete RPMI ± drug and cultured for 64 h. A 1:3 split of confluent PC3 cells in a 75 cm^2 flask were seeded into a 96-well plate and cultured for 48 h in complete RPMI. Media was removed and complete RPMI ± drug was added to wells. Cells were further cultured for 72 h.
i) Ethanol. Drugs were dissolved in ethanol and added to culture media. The final concentration of ethanol in media was no greater than 1% (v/v). This delivery was used for experiments with JURKAT, PBMC, PC3 and B16 cell types.
ii) Coating of plates. Drugs were dissolved in ethanol and aliquots (up to 40 μl) were added to 90% (v/v) isopropanol. Solution (50 μl) was then added to wells of a 96-well plate and the solvent evaporated by heating at 37° C. Media ± cells was then added. This delivery was used for some experiments with JURKAT cells.
Viability was determined using the MTS assay (CellTiter 96TM AQueous Non-Radioactive Cell Proliferation Assay) from Promega. Reagent (40 μl) was added to each well and absorbance values at 490 nm were determined 1 to 4 h later. The effect of drug on cell viability was compared to cultures set up containing no drug (100% viability). Wells containing no cells were used to control for background absorbance (0% viability). Each concentration was tested in at least 3 wells. Concentrations necessary to cause a 50% inhibition of cellular growth of control cells (IC50) were calculated by linear regression.

[9] = test system: human peripheral blood mononuclear cells; assay: Cytotoxicity of chlorambucil and conjugates, MTS assay, PBMC; format: cell-based; conditions: for IC50: ethanol delivery
Experimental: Human peripheral blood mononuclear cells (PBMC) were isolated from one healthy donor by centrifugation on Ficoll-Paque (Pharmacia). Cells were seeded into a 96-well plates at a density of 2×10^5 cells/200 μl complete RPMI ± drug and cultured for 40 h.
as §7

[10] = test system: PC3 human prostate cancer cells; assay: Cytotoxicity of chlorambucil and conjugates, MTS assay, PC3; format: cell-based; conditions: for IC50: PC3, ethanol delivery, 72 h
Experimental: Cells were further cultured for 72 h.
as §7

[11] = test system: coordination of mice; assay: Coordination on Rotor-Rod; format: in vivo, Quackenbush Strain mice; conditions: 1 and 4 hr after ip injection, 1.6 rpm
Experimental: Coordination of mice after treatment was also assessed by placing treated animals on a Rotor-Rod at 1.6 rpm. The ability of animals to stay on the rod was assessed.

[12] = test system: pain response on heated plate; conditions: for Time Response ± SEM: doses 5, 10 & 20 mg Morphine/kg pooled, 12 mice per group; for Behaviour Score ± SEM: pooled doses, panel score 0 (agitated) to 3 (placid)
Experimental: The biological activities of Morphine (Mo) and fatty acid conjugates were tested in an antinociceptive assay using mice. Various doses and duration of pain-killing effect of the drugs were examined.
Quackenbush Strain mice (male, 5-week-old, approximately 30 g live weight) were used for the experiments. Animals were given free access to food and water prior to and during the experiment. Animals were divided into groups of 12 and individually weighed. The mean weight for each group was calculated. Mice were then placed on a metal block heated to 50° C. and the time taken for the animals to show signs of discomfort was measured (baseline response: control). Mice were then injected intraperitoneally (ip) with various doses of Morphine or Morphine-fatty acid conjugate. Morphine was made up in a H2O solution and Morphine-fatty acids were made up in an emulsion containing 10% glycerylmonooleate, 21% Miglyol, 6% ethanol, 24% Tween 80 (33%) and 39% H2O. 0.2 ml of appropriate solution was injected ip into each mouse. At different times after injection, responses on the heated plate were measured. In each experiment 3 doses of Morphine and Morphine-fatty acid and 2 time points were tested. A single mouse was used for each treatment and the entire experiment repeated at least 3 times. […] Members of the panel were asked to score mice behaviour according to the following key:
0=agitated mouse, distressed
1=showing mild discomfort
2=not agitated or uncomfortable but still alert
3=placid. docile; not at all worried.
Results from the panel were averaged.

[13] = test system: B16 melanoma cells; assay: Tumour Cytotoxicity Model (B16 melanoma in C57 mice); format: in vivo, C57 black mice; design: Mean (standard error) of B16 tumour volume adjusted for the variation in initial volume: scale not given here; conditions: for Mean (standard error) of B16 tumour volume adjusted for the variation in initial volume: statistically modified tumour volume; for B16 Tumour Volume: individual mice
Experimental: Groups of C57 black mice were given an initiation dose of 2×10^5 B16 melanoma cells as an intradermal injection. The cells were suspended in MEM without serum. The abdomen was clipped and 100 μl of cells + MEM was injected. […] The tumours were measured with a micrometer and photographed just prior to the injection of drug (day 8-10).
The cytotoxic drugs and their fatty acid conjugates were dissolved or suspended in 4:1 soy bean oil:ethyl oleate. A 10 mg/ml or a 20 mg/ml solution of each parent drug or the fatty acid conjugate made to the same molar concentration as the parent drug was then injected into the same region as the tumour at a dose of 0.5 mg or 1 mg. The tumours were then photographed, measured and re-injected every two to three days.

[14] = JURKAT, addition of ethanol solution to culture media
[15] = JURKAT, coating of plates (Table 8)
[16] = JURKAT, drugs coated onto plates (Table 9)

Compound | fold more cytotoxic than AZT [1] | IC50 [1] | Ratio of AZT: Conjugate EC50 [2] | EC50 [2] | fold more cytotoxic than AZT [4] | IC50 [4] | Ratio of AZT: Conjugate EC50 [6] | EC50 [6] | IC50 [7] | IC50 [8, 14] | IC50 [8, 15] | IC50 [8, 16] | IC50 ([8]; JURKAT, ethanol delivery, 64 h) | IC50 ([9]; PBMC (1) = one donor, 40 h) | IC50 ([9]; PBMC (3) = three donors) | IC50 [10] | ability to stay on the Rotor-Rod (coordination) [11] | mean time response ([12]; 5 mg Mo/kg ip, 1 hr) | mean time response ([12]; 5 mg Mo/kg ip, 4 hr) | mean time response ([12]; 5 mg Mo/kg ip, 6 hr) | further results
CCCCCCCCCCCCCCCC(=O)OCC(CO)(CO)NC(=O)CNC(=O)CCC(=O)OC[C@H]1O[C@@H](n2cc(C)c(=O)[nH]c2=O)C[C@@H]1N=[N+]=[N-] [AZT-Suc-GTP1] | 50 | 100 µM | 12.5 | 8 µM | 50 | 100 µM | 1.3 | 0.012 µM | – | – | – | – | – | – | – | – | – | – | – | – | IC50 [3]: 26.7 µM; times more cytotoxic than the parent drug ([5]; JURKAT cells, versus AZT): 40; IC50 ([5]; JURKAT, 64 h, drug in ethanol, MTS): 43 µM
CCCCCCCCCCCCCCCC(=O)OCC(CO)(COC(=O)CCCCCCCCCCCCCCC)NC(=O)CNC(=O)CCC(=O)OC[C@H]1O[C@@H](n2cc(C)c(=O)[nH]c2=O)C[C@@H]1N=[N+]=[N-] [AZT-Suc-GTP2] | 25 | 200 µM | approx. 0.5 | > 200 µM | 25 | 200 µM | 0.5 | 0.032 µM | – | – | – | – | – | – | – | – | – | – | – | – | –
CCCCCCCCCCCCCCCC(=O)OCC(CO)(CO)NC(=O)CNC(=O)CCCc1ccc(N(CCCl)CCCl)cc1 [CGTP1, Chlorambucil-Gly-Tris-Monopalmitate] | – | – | – | – | – | – | – | – | 23.1 µM | 6.5 µM | 8.6 µM | 8.4 µM | 6.5 µM | 7.1 µM | 5.5 µM | 10.7 µM | – | – | – | – | Clorambucil to CGTP1 Ratio (IC50) ([7]; B16): 1.6; Clorambucil to CGTP1 Ratio (IC50) ([8]; JURKAT): 15 and 15.5; cytotoxicity to JURKAT cells (in words) ([8]; comparison of conjugate, equimolar mixture and GTP1 alone): more cytotoxic to JURKAT cells than an equimolar mixture of chlorambucil and GTP1; fold increase in toxicity to normal cells (PBMC) versus chlorambucil ([9]; PBMC): approximately 5; Clorambucil to CGTP1 Ratio (IC50) ([9]; PBMC (1)): 6.3; Clorambucil to CGTP1 Ratio (IC50) ([9]; PBMC (3)): approx. 4; Clorambucil to CGTP1 Ratio (IC50) ([10]; PC3): 15.0
CN1CC[C@]23c4c5ccc(O)c4O[C@H]2[C@@H](O)C=C[C@H]3[C@H]1C5 [Morphine, reference compound] | – | – | – | – | – | – | – | – | – | – | – | – | – | – | – | – | able to stay on the rotor-rod | 27.8 (4) sec | 23.9 (8) sec | 20.0 (4) sec | mean time response ([12]; 1 mg Mo/kg ip, 4 hr, standard error of each mean ±2.86): 23.2 s; mean time response ([12]; 1 mg Mo/kg ip, 6 hr, standard error of each mean ±2.86): 20.8 s; mean time response ([12]; 10 mg Mo/kg ip, 4 hr, standard error of each mean ±2.86): 23.0 s; mean time response ([12]; 10 mg Mo/kg ip, 6 hr, standard error of each mean ±2.86): 24.2 s; Time Response ± SEM ([12]; 1 hr after ip injection): 32.7 ± 2.74 s; Behaviour Score ± SEM ([12]; 1 hr after ip injection): 2.46 ± 0.166; Time Response ± SEM ([12]; 4 hr after ip injection): 28.2 ± 2.74 s; Behaviour Score ± SEM ([12]; 4 hr after ip injection): 1.93 ± 0.166
CCCCCCCCCCCCCCCC(=O)OCC(CO)(COC(=O)CCCCCCCCCCCCCCC)NC(=O)CNC(=O)CCC(=O)Oc1ccc2c3c1O[C@H]1[C@@H](O)C=C[C@H]4[C@@H](C2)N(C)CC[C@@]341 [Morphine-Suc-GTP2, Morphine-Suc-Gly-Tris-Dipalmitate] | – | – | – | – | – | – | – | – | – | – | – | – | – | – | – | – | able to stay on the rotor-rod | 24.0 (4) sec | 30.5 (8) sec | 27.8 (4) sec | Time Response ± SEM ([12]; 1 hr after ip injection): 26.7 ± 2.74 s; Behaviour Score ± SEM ([12]; 1 hr after ip injection): 2.34 ± 0.166; Time Response ± SEM ([12]; 4 hr after ip injection): 31.2 ± 2.74 s; Behaviour Score ± SEM ([12]; 4 hr after ip injection): 2.35 ± 0.166; duration of pain-killing effect compared with morphine ([12]; ip injection): longer lasting pain-killing effect than unconjugated morphine
Chlorambucil [reference compound] | – | – | – | – | – | – | – | – | 36.5 µM | 101 µM | 219 µM | 219 µM | 101 µM | 45 µM | < 22 µM | 160 µM | – | – | – | – | difference in tumour volume from the Vehicle group (95% level) ([13]; 0.5 mg and 1.0 mg groups): significant difference; Mean (standard error) of B16 tumour volume adjusted for the variation in initial volume ([13]; 13/11/95, 0.5 mg): 3.01 (0.610); Mean (standard error) of B16 tumour volume adjusted for the variation in initial volume ([13]; 15/11/95, 0.5 mg): 3.29 (0.955); Mean (standard error) of B16 tumour volume adjusted for the variation in initial volume ([13]; 16/11/95, 0.5 mg): 3.46 (1.15); Mean (standard error) of B16 tumour volume adjusted for the variation in initial volume ([13]; 17/11/95, 0.5 mg): 3.65 (1.38); toxicity observed in test group ([13]; C57 mice, repeated injection every two to three days): High toxicity; B16 Tumour Volume ([13]; Day 1, drug dose 0.5 mg injected at tumour region): 0.5 mm^2 and 1.6 mm^2 and 8.2 mm^2 and 16.6 mm^2; B16 Tumour Volume ([13]; Day 3, drug dose 0.5 mg): 0.5 mm^2 and 0 mm^2 and 21.8 mm^2 and 38.3 mm^2; B16 Tumour Volume ([13]; Day 5, drug dose 0.5 mg): 0 mm^2 (2×) and 7.7 mm^2 and 108.4 mm^2; B16 Tumour Volume ([13]; Day 6, drug dose 0.5 mg): 0 mm^2 (2×) and 7.7 mm^2 and 125.1 mm^2; B16 Tumour Volume ([13]; Day 7, drug dose 0.5 mg): 0 mm^2 (2×) and 5.9 mm^2 and 174.1 mm^2; mice died ([13]; chlorambucil test group): 3 out of 7
